Experimental data published in patent US10183942B2, “JAK kinase inhibitor compounds for treatment of respiratory disease” (THERAVANCE BIOPHARMA R&D IP, LLC, priority 2015, dated 2019).

Tests used:
[1] = molecular target: JAK1 (Homo sapiens (Human), UniProt P23458)
[2] = test system: IL-13 induced pSTAT6 induction in lung tissue; experiment: Murine model of IL-13 induced pSTAT6 induction in lung tissue; format: in vivo; details: mouse lung; for inhibition of STAT6 phosphorylation in the pharmacodynamic assay: IL-13 challenge 4 h after dose; for lung concentration smaller than that of the corresponding compound of the invention by a factor: pharmacodynamic assay, C-1 vs 1, C-2 vs 7, C-3 vs 13, C-4 vs 6
Procedure: 11-13 is an important cytokine underlying the pathophysiology of asthma (Kudlacz et al. Eur. J. Pharmacol, 2008, 582, 154-161). IL-13 binds to cell surface receptors activating members of the Janus family of kinases (JAK) which then phosphorylate STAT6 and subsequently activates further transcription pathways. In the described model, a dose of IL-13 was delivered locally into the lungs of mice to induce the phosphorylation of STAT6 (pSTAT6) which is then measured as the endpoint.
Adult balb/c mice from Harlan were used in the assay. On the day of study, animals were lightly anesthetized with isoflurane and administered either vehicle or test compound (0.5 mg/mL, 50 μL total volume over several breaths) via oral aspiration. Animals were placed in lateral recumbency post dose and monitored for full recovery from anesthesia before being returned to their home cage. Four hours later, animals were once again briefly anesthetized and challenged with either vehicle or IL-13 ([…] total dose delivered, 50 μL total volume) via oral aspiration before being monitored for recovery from anesthesia and returned to their home cage. One hour after vehicle or IL-13 administration, lungs were collected for both pSTAT6 detection using an anti-pSTAT6 ELISA (rabbit mAb capture/coating antibody; mouse mAb detection/report antibody: anti-pSTAT6-pY641; secondary antibody: anti-mouse IgG-HRP) and analyzed for total drug concentration as described above in Assay 4.
Selected compounds of the invention were tested in the assay. Activity in the model is evidenced by a decrease in the level of pSTAT6 present in the lungs of treated animals at 5 hours compared to the vehicle treated, IL-13 challenged control animals. The difference between the control animals which were vehicle-treated, IL-13 challenged and the control animals which were vehicle-treated, vehicle challenged dictated the 0% and 100% inhibitory effect, respectively, in any given experiment.

[3] = Pharmacokinetics in plasma and lung in mouse; format: in vivo; details: oral aspiration 0.2 mg/mL 50 uL, lung AUC / plasma AUC
Procedure: Plasma and lung levels of test compounds and ratios thereof were determined in the following manner. BALB/c mice from Charles River Laboratories were used in the assay. Test compounds were individually formulated in 20% propylene glycol in pH 4 citrate buffer at a concentration of 0.2 mg/mL and 50 uL of the dosing solution was introduced into the trachea of a mouse by oral aspiration. At various time points (typically 0.167, 2, 6, 24 hr) post dosing, blood samples were removed via cardiac puncture and intact lungs were excised from the mice. Blood samples were centrifuged (Eppendorf centrifuge, 5804R) for 4 minutes at approximately 12,000 rpm at 4° C. to collect plasma. Lungs were padded dry, weighed, and homogenized at a dilution of 1:3 in sterile water. Plasma and lung levels of test compound were determined by LC-MS analysis against analytical standards constructed into a standard curve in the test matrix. A lung to plasma ratio was determined as the ratio of the lung AUC in μg hr/g to the plasma AUC in […], where AUC is conventionally defined as the area under the curve of test compound concentration vs. time.

[4] = test system: interleukin-13 induced STAT6 phosphorylation in BEAS-2B human lung epithelial cells; experiment: Cellular JAKI potency assay (AlphaScreen, BEAS-2B); format: cell-based; details: C-1 vs 1, C-2 vs 7, C-3 vs 13, C-4 vs 6
Procedure: The AlphaScreen JAKI cellular potency assay was carried out by measuring interleukin-13 (IL-13, R&D Systems) induced STAT6 phosphorylation in BEAS-2B human lung epithelial cells (ATCC). The anti-STAT6 antibody (Cell Signaling Technologies) was conjugated to AlphaScreen acceptor beads (Perkin Elmer), while the anti-pSTAT6 (pTyr641) antibody (Cell Signaling Technologies) was biotinylated using EZ-Link Sulfo-NHS-Biotin (Thermo Scientific).
BEAS-2B cells were grown at 37° C. in a 5% CO2 humidified incubator in 50% DMEM/50% F-12 medium (Life Technologies) supplemented with 10% FBS (Hyclone), 100 U/mL penicillin, 100 μg/mL streptomycin (Life Technologies), and 2 mM GlutaMAX (Life Technologies). On day 1 of the assay, cells were seeded at a 7,500 cells/well density in white poly-D-lysine-coated 384-well plates (Corning) with 25 μL medium, and were allowed to adhere overnight in the incubator. On day 2 of the assay, the medium was removed and replaced with 12 μL of assay buffer (Hank's Balanced Salt Solution/HBSS, 25 mM HEPES, and 1 mg/ml bovine serum albumin/BSA) containing dose-responses of test compounds. Compounds were serially diluted in DMSO and then diluted another 1000-fold in media to bring the final DMSO concentration to 0.1%. Cells were incubated with test compounds at 37° C. for 1 h, and followed by the addition of 12 μl of pre-warmed IL-13 (80 ng/ml in assay buffer) for stimulation. After incubating at 37° C. for 30 min, the assay buffer (containing compound and IL-13) was removed, and 10 μl of cell lysis buffer (25 mM HEPES, 0.1% SDS, 1% NP-40, 5 mM MgCl2, 1.3 mM EDTA, 1 mM EGTA, and supplement with Complete Ultra mini protease inhibitors and PhosSTOP from Roche Diagnostics). The plates were shaken at ambient temperature for 30 min before the addition of detection reagents. […] After a minimum of 2 h incubation, the assay plates were read on the EnVision plate reader.
Results were expressed as the negative logarithm of the IC50 value, pIC50.

[5] = Dynamic moisture sorption assessment; format: physicochemical
Procedure: Dynamic moisture sorption (DMS) measurement was performed using a VTI atmospheric microbalance, SGA-100 system (VTI Corp., Hialeah, Fla. 33016). A weighed sample was used and the humidity was lowest possible value (close to 0% RH) at the start of the analysis. The DMS analysis consisted of an initial drying step (˜0% RH) for 120 minutes, followed by two cycles of sorption and desorption with a scan rate of 5% RH/step over the humidity range of 5% RH to 90% RH. The DMS run was performed isothermally at 25° C.

Chain of JAK1 (P23458 whole entry): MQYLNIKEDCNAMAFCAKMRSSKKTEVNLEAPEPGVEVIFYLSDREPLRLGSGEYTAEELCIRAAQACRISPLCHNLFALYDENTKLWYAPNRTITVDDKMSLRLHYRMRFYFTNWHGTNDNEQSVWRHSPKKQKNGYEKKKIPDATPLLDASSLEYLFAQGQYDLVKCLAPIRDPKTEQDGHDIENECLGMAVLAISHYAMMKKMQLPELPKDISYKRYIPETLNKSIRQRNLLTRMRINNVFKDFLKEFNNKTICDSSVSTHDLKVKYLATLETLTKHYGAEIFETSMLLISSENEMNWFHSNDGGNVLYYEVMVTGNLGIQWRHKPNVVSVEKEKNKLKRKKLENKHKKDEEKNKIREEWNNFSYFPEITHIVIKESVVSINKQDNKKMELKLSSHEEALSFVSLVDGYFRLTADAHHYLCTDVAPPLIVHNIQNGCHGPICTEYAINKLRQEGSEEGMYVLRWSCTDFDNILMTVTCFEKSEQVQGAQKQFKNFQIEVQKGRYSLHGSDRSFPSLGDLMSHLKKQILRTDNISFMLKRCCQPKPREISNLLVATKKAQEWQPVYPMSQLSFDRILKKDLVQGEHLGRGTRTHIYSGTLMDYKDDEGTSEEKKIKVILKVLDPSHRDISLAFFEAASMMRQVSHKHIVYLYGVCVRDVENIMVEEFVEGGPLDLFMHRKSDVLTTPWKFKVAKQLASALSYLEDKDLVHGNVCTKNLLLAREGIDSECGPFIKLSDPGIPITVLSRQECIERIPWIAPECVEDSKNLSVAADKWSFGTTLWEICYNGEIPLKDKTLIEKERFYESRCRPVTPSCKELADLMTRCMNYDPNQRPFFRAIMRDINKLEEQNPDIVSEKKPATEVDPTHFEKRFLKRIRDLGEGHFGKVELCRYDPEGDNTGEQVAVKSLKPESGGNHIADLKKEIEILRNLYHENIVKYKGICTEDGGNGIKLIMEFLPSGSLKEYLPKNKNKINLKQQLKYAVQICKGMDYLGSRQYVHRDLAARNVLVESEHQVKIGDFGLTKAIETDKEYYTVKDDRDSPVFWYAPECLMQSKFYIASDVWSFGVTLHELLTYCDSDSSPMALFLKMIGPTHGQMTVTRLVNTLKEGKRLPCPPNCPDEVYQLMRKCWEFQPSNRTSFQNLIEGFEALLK

| SMILES | Ki [1] | Lung to Plasma ratio Assay 4 [3] | further results |
| --- | --- | --- | --- |
| CCc1cc(O)c(F)cc1-c1ccc2c(-c3nc4c([nH]3)CCN(C3CN(CCO)C3)C4)n[nH]c2c1 [Example 1-1] | < 100 pM |  |  |
| CCc1cc(O)c(F)cc1-c1ccc2c(-c3nc4c([nH]3)CCN(C3CN(CC)C3)C4)n[nH]c2c1 [Example 1-3] | < 100 pM |  |  |
| CCc1cc(O)c(F)cc1-c1ccc2c(-c3nc4c([nH]3)CCN(C3CN(CCOC)C3)C4)n[nH]c2c1 [Example 1-6] | < 100 pM |  |  |
| CCc1cc(O)c(F)cc1-c1ccc2c(-c3nc4c([nH]3)CCN(C3CN(CCC#N)C3)C4)n[nH]c2c1 [Example 1-8] | < 100 pM |  |  |
| CCc1cc(O)c(F)cc1-c1ccc2c(-c3nc4c([nH]3)CCN(C3CN(C5CCS(=O)(=O)C5)C3)C4)n[nH]c2c1 (stereo not shown) [Example 1-15] |  |  | inhibition of STAT6 phosphorylation in the pharmacodynamic assay [2]: exceptions |
| CCc1cc(O)c(F)cc1-c1ccc2c(-c3nc4c([nH]3)CCN(C3CCNCC3)C4)n[nH]c2c1 [Example 2-3] | < 100 pM |  |  |
| CCc1cc(O)c(F)cc1-c1ccc2c(-c3nc4c([nH]3)CCN(CCNC3(C#N)CC3)C4)n[nH]c2c1 [Example 3-1] |  |  | inhibition of STAT6 phosphorylation in the pharmacodynamic assay [2]: exceptions |
| CCc1cc(O)c(F)cc1-c1ccc2c(-c3nc4c([nH]3)CCN(CCN(C)CC(C)C)C4)n[nH]c2c1 [Example 3-33] |  | A (A denotes a ratio >100) |  |
| CCc1cc(O)c(F)cc1-c1ccc2c(-c3nc4c([nH]3)CCN(CCNC3CC(OC)C3)C4)n[nH]c2c1 (stereo not shown) [Example 8, 5-Ethyl-2-fluoro-4-(3-(5-(2-((3-methoxycyclobutyl)amino)ethyl)-4,5,6,7-tetrahydro-1H-imidazo[4,5-c]pyridin-2-yl)-1H-indazol-6-yl)phenol] |  | A (A denotes a ratio >100) |  |
| CCc1cc(O)c(F)cc1-c1ccc2c(-c3nc4c([nH]3)CCN(C3CCNC3)C4)n[nH]c2c1 (stereo not shown) [Example 9-1] | < 100 pM |  |  |
| CCc1cc(O)c(F)cc1-c1ccc2c(-c3nc4c([nH]3)CCN(C[C@@H]3CCCN3C)C4)n[nH]c2c1 [Example 11, (S)-5-ethyl-2-fluoro-4-(3-(5-((1-methylpyrrolidin-2-yl)methyl)-4,5,6,7-tetrahydro-1H-imidazo[4,5-c]pyridin-2-yl)-1H-indazol-6-yl)phenol] |  | A (A denotes a ratio >100) |  |
| CCc1cc(O)c(F)cc1-c1ccc2c(-c3nc4c([nH]3)CCN(C[C@H]3COCCN3)C4)n[nH]c2c1 [Example 13, (S)-5-Ethyl-2-fluoro-4-(3-(5-(morpholin-3-ylmethyl)-4,5,6,7-tetrahydro-1H-imidazo[4,5-c]pyridin-2-yl)-1H-indazol-6-yl)phenol] |  | A (A denotes a ratio >100) |  |
| CCc1cc(O)c(F)cc1-c1ccc2c(-c3nc4c([nH]3)CCN(C[C@@H]3COCCN3)C4)n[nH]c2c1 [Example 14, (R)-5-Ethyl-2-fluoro-4-(3-(5-(morpholin-3-ylmethyl)-4,5,6,7-tetrahydro-1H-imidazo[4,5-c]pyridin-2-yl)-1H-indazol-6-yl)phenol] |  | A (A denotes a ratio >100) |  |
| CCc1cc(O)c(F)cc1-c1ccc2c(-c3nc4c([nH]3)CCN(CC3CNC3)C4)n[nH]c2c1 [Example 14-7] | < 100 pM | A (A denotes a ratio >100) |  |
| CCc1cc(O)c(F)cc1-c1ccc2c(-c3nc4c([nH]3)CCN(CCN3CCC[C@@H]3C)C4)n[nH]c2c1 [Example 15, (S)-5-ethyl-2-fluoro-4-(3-(5-(2-(2-methylpyrrolidin-1-yl)ethyl)-4,5,6,7-tetrahydro-1H-imidazo[4,5-c]pyridin-2-yl)-1H-indazol-6-yl)phenol] |  | A (A denotes a ratio >100) |  |
| CCc1cc(O)c(F)cc1-c1ccc2c(-c3nc4c([nH]3)CCN(C3CC(C)C3)C4)n[nH]c2c1 (stereo not shown) [Example C-1, 5-Ethyl-2-fluoro-4-(3-(5-(3-methylcyclobutyl)-4,5,6,7-tetrahydro-1H-imidazo[4,5-c]pyridin-2-yl)-1H-indazol-6-yl)phenol] |  |  | lung concentration smaller than that of the corresponding compound of the invention by a factor [2]: 36 |
| CCc1cc(O)c(F)cc1-c1ccc2c(-c3nc4c([nH]3)CCN(CCC(C)C)C4)n[nH]c2c1 [Example C-2] |  |  | fold less potent than the corresponding compound of the invention in the BEAS-2B cellular assay [4]: 6 fold; lung concentration smaller than that of the corresponding compound of the invention by a factor [2]: 52 |
| CCc1cc(O)c(F)cc1-c1ccc2c(-c3nc4c([nH]3)CCN(CC3CCCOC3)C4)n[nH]c2c1 (stereo not shown) [Example C-3] |  |  | fold less potent than the corresponding compound of the invention in the BEAS-2B cellular assay [4]: 3 fold; lung concentration smaller than that of the corresponding compound of the invention by a factor [2]: 13 |
| CCc1cc(O)c(F)cc1-c1ccc2c(-c3nc4c([nH]3)CCN(C3CCC(C)CC3)C4)n[nH]c2c1 (stereo not shown) [Example C-4] |  |  | fold less potent than the corresponding compound of the invention in the BEAS-2B cellular assay [4]: 6 fold; lung concentration smaller than that of the corresponding compound of the invention by a factor [2]: 23 |
| CCc1cc(O)c(F)cc1-c1ccc2c(-c3nc4c([nH]3)CCN(C3CCN(C)CC3)C4)n[nH]c2c1 [crystalline hydrate, Crystalline hydrate of 5-ethyl-2-fluoro-4-(3-(5-(1-methylpiperidin-4-yl)-4,5,6,7-tetrahydro-1H-imidazo[4,5-c]pyridin-2-yl)-1H-indazol-6-yl)phenol] |  |  | weight gain in dynamic moisture sorption ([5]; 5% to 90% relative humidity, about 25° C.): less than 0.12%; hygroscopicity ([5]; two cycles of sorption and desorption): non-hygroscopic |
